Data on six compounds can be found in PMC4051119, “Bacterial actin MreB forms antiparallel double filaments” (eLife, 2014).

Where “and” joins values, the source holds several entries; their conditions need not be identical. Equal entries are not always repeated. Where two headings read alike, the source gives them in different places.

A word on the Kd: it is the concentration at which binding is half-saturated.

In one assay the target is T1, ΔCcMreBdh (Caulobacter vibrioides, UniProt A0A0H3C7V4, F102S/V103G).
T1 construct: added initiator Met (M before I9) (N); made in house; host or cells: E. coli C41(DE3) (printed for the sister construct ΔCcMreBh)
Kind of assay: Isothermal titration calorimetry of nucleotides and MP265 binding to MreB. The note with it: ITC. Set-up: species or system Caulobacter crescentus. As for the experimental part:
[…] Samples were stored by the instrument in 96-well microtitre plates at 5°C prior to loading and performing the ITC titrations. […] Heat from the pre-injection was not used during fitting. Data were analysed manually in the Origin software package provided by the manufacturer and fit to a single set of binding sites model. […] The small endothermic heats of each injection in these experiments were fitted to a simple linear function that was subsequently subtracted from the equivalent integrated heats of the experiment when protein was present.
In general terms: ITC needs no label: the signal is the heat of the interaction.

The next assay concerns cell morphology. Set-up: method as in earlier work. Particulars: ref Iwai et al., 2002; Gitai et al., 2005; Bean et al., 2009; Takacs et al., 2010; cited from earlier work.
The mark [1] stands for this setting: 25°C, ligand titrated into ΔCcMreBdh alone.
Where [2] appears, read: 25°C, ligand titrated into ΔCcMreBdh alone, read-out: Kd.

T1 sequence (A0A0H3C7V4 9-347 F102S/V103G): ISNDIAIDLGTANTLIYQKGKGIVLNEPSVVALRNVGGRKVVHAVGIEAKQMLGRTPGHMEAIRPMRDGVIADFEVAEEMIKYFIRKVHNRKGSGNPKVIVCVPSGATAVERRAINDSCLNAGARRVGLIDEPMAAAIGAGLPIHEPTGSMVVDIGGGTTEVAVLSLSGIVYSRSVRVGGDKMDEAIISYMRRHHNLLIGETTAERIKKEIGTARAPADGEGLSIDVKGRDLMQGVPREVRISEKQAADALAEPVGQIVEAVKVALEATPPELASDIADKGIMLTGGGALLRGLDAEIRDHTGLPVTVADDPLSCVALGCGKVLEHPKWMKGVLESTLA

`Nc1ncnc2c1ncn2[C@@H]1O[C@H](COP(=O)(O)OP(=O)(O)O)[C@@H](O)[C@H]1O` [ADP] had a ΔH at ΔCcMreBdh (setting [1]) of -5.3 kcal/mol. Moreover, the Kd on ΔCcMreBdh (setting [2]) was ~4 µM and 4 µM.
As to `N=C(N)SCc1ccc(Cl)c(Cl)c1` [A22, S-(3,4-dichlorobenzyl) isothiourea], the “effect on cell morphology” value in the assay on cell morphology is given as “perturb cell morphology reminiscent of an MreB knock-out”.
`Nc1ncnc2c1ncn2[C@@H]1O[C@H](COP(=O)(O)OP(=O)(O)OP(=O)(O)O)[C@@H](O)[C@H]1O` [ATP]: the ΔH on ΔCcMreBdh (setting [1]) was -6.0 kcal/mol. For the same compound, on ΔCcMreBdh (setting [2]), the Kd was ~1 µM and 1 µM.
On ΔCcMreBdh (setting [1]), `Nc1ncnc2c1ncn2[C@@H]1O[C@H](CO[P@](=O)(O)O[P@](=O)(O)O[P@@](=O)(O)S)[C@@H](O)[C@H]1O` [ATPγS] had a ΔH of -7.7 kcal/mol. Moreover, the Kd at ΔCcMreBdh (Kd, 25°C, ligand titrated into ΔCcMreBdh alone) was ~4.6 µM and 4.5 µM.
Consider `N=C(N)SCc1ccc(Cl)cc1` [MP265], for which the Kd was 0.6 µM on ΔCcMreBdh (15°C, in the presence of 0.5 mM ADP, data not shown, read-out: affinity (Kd)); 0.7 µM on ΔCcMreBdh (15°C, in the presence of 0.5 mM AMPPNP, data not shown, read-out: affinity (Kd)); 19 µM on ΔCcMreBdh (15°C, ΔCcMreBdh alone, data not shown, read-out: affinity (Kd)); 1.3 µM on ΔCcMreBdh (25°C, in the presence of 0.5 mM ADP, read-out: Kd); 1.7 µM at ΔCcMreBdh (25°C, in the presence of 0.5 mM AMPPNP, read-out: Kd); ~27 µM and 26 µM and 27 µM at ΔCcMreBdh (setting [2]). Further, the ΔH is -12 kcal/mol at ΔCcMreBdh (25°C, in the presence of 0.5 mM ADP) and -11 kcal/mol on ΔCcMreBdh (25°C, in the presence of 0.5 mM AMPPNP). The “increase of binding affinity in the presence of di- and trinucleotide phosphates” value at ΔCcMreBdh (with nucleotide versus ΔCcMreBdh alone) was 20–30 fold. Further, the “effect on cell morphology” value with cell morphology was “perturb cell morphology reminiscent of an MreB knock-out”.
In turn, `Nc1ncnc2c1ncn2[C@@H]1O[C@H](COP(=O)(O)OP(=O)(O)NP(=O)(O)O)[C@@H](O)[C@H]1O` [AMPPNP] returned a ΔH on ΔCcMreBdh (setting [1]) of -4.4 kcal/mol. Besides, the Kd at ΔCcMreBdh (setting [2]) was ~65 µM and 65 µM.
